Source: EP1247803A2, “Indolinone compounds suitable for modulation of protein kinases” (Sugen, Inc., priority 1996, dated 1998)

Assays:
EGFR = molecular target: T1, EGFR (Homo sapiens, UniProt P00533); assay: EGFR ELISA assay (in vitro kinase activity, EGFR captured from A431 cell lysate); assay type: biochemical; design: concentration or dose not given beside the values
T1 construct: Add 7 ug A431 cell lysate per well (EGFR source); endogenous in cells; host or cells: A431
Procedure, shortened: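 EGFR from A431 lysate was captured on plates coated with anti-EGFR antibody. Compounds were added 30 min before a 5 min phosphorylation with 3 µM ATP/5 mM MnCl2, which was stopped with 20 mM EDTA. Phosphotyrosine was detected with rabbit anti-phosphotyrosine, then a peroxidase-conjugated secondary and ABTS/H2O2, read at 410 nm.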

MET = MET biochemical kinase assay; design: species or system human; concentration or dose not given beside the values
Procedure, shortened: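 In this format, tyrosine phosphorylation of plate-captured human MET is followed in vitro after compound addition in ATP/divalent-cation buffer, detected by anti-phosphotyrosine-HRP with TMB substrate.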

T1 sequence (P00533 25-1210): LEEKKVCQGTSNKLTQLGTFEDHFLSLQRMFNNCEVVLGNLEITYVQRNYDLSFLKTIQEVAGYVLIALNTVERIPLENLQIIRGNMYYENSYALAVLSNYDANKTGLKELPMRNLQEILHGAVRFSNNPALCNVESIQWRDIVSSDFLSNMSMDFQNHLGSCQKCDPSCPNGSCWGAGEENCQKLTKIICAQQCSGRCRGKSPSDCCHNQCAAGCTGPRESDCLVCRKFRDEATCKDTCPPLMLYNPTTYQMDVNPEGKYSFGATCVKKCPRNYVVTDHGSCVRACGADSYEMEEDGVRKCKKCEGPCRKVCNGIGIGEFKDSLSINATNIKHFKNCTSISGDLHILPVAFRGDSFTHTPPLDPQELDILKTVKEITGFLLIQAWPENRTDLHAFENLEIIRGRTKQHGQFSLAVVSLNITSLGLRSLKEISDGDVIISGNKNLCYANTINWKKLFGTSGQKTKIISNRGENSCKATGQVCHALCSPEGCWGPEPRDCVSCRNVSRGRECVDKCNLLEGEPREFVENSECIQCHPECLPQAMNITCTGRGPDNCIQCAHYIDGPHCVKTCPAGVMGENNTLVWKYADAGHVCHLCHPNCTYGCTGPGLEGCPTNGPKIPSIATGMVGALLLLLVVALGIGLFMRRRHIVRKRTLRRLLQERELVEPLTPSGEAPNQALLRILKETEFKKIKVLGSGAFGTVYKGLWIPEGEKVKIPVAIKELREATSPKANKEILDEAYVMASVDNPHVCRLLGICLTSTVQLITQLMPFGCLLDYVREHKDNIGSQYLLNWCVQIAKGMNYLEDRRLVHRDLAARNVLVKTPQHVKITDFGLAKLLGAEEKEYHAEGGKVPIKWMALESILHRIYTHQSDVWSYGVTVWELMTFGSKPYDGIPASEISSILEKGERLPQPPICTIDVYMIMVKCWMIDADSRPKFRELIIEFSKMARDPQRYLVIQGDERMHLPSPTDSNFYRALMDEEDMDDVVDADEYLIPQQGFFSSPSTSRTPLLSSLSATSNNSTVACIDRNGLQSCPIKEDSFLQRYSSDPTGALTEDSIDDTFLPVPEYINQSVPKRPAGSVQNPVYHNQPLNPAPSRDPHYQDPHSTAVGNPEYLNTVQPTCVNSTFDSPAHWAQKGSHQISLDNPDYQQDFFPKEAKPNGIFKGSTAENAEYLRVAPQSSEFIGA

Compound | Biochem EGFR %Inhibition (EGFR) | Met Kinase % Inhibition (MET)
COc1ccc(C=C2C(=O)Nc3ccc(Br)c(C)c32)cc1OC [10720/C04] | -13.1% | 29.0%
COc1ccc(O)c(C=C2C(=O)Nc3c(Br)cc(Br)cc32)c1 [10720/A10] | -2.7% | 68.4%
CCOc1ccccc1C=C1C(=O)Nc2ccc(Br)c(C)c21 [10717/C02] | -0.4% | 29.7%
O=C1Nc2ccc(CCCl)cc2C1=Cc1cccc([N+](=O)[O-])c1 [10719/G10] | -27.6% | 35.5%
O=C1Nc2ccc(I)cc2C1=Cc1ccc[nH]1 [10717/B09] | 78.3% | 88.8%
O=C1Nc2ccc(S(=O)(=O)Nc3ccc(C(F)(F)F)cc3)cc2C1=Cc1ccc(O)c(O)c1 [10719/E03] | 73.0% | 87.2%
CNS(=O)(=O)c1ccc2c(c1)C(=Cc1c(F)cc(F)cc1F)C(=O)N2 [10720/D02] | 11.1% | 17.8%
O=C1Nc2ccc(S(=O)(=O)N3CCOCC3)cc2C1=Cc1cccc([N+](=O)[O-])c1 [10719/F10] | -17.7% | 30.8%
Cc1c(Br)ccc2c1C(=Cc1ccccc1O)C(=O)N2 [10720/C05] | -15.3% | 72.5%
CCOc1ccc(C=C2C(=O)Nc3ccc(S(=O)(=O)Nc4ccc(C(F)(F)F)cc4)cc32)cc1OC [10719/E02] | 40.0% | 35.7%
CNS(=O)(=O)c1ccc2c(c1)C(=Cc1ccc(OC)cc1OC)C(=O)N2 [10719/D04] | 15.3% | 28.9%
CN(C)c1ccc(C=C2C(=O)Nc3ccc(CCCl)cc32)cc1 [10719/G08] | 65.4% | 39.4%
CNS(=O)(=O)c1ccc2c(c1)C(=Cc1ccc(F)cc1Cl)C(=O)N2 [10719/D09] | -3.1% | 13.0%
O=C1Nc2ccc(S(=O)(=O)N3CCOCC3)cc2C1=Cc1ccc(F)cc1C(F)(F)F [10719/F11] | -66.3% | 8.7%
O=C1Nc2ccc(S(=O)(=O)Nc3ccc(C(F)(F)F)cc3)cc2C1=Cc1ccc(F)cc1C(F)(F)F [10719/E11] | -51.8% | 28.5%
Cc1cc(O)cc(O)c1C=C1C(=O)Nc2c(Br)cc(Br)cc21 [10720/A08] | -23.2% | 77.9%
Cc1c(Br)ccc2c1C(=Cc1c(F)cc(F)cc1F)C(=O)N2 [10720/C02] | 23.5% | 63.6%
O=C1Nc2c(Br)cc(Br)cc2C1=Cc1c(F)cc(F)cc1F [10720/A02] | 11.3% | 45.2%
CCOc1cc(C=C2C(=O)Nc3ccc(Br)c(C)c32)ccc1O [10720/C09] | 44.7% | 47.5%
CNS(=O)(=O)c1ccc2c(c1)C(=Cc1ccc(O)c(O)c1)C(=O)N2 [10719/D03] | 95.7% | 93.2%

Compound | Biochem EGFR %Inhibition (EGFR) | Met Kinase % Inhibition (MET)
Cc1[nH]c(C=C2C(=O)Nc3ccc(I)cc32)c(Br)c1Br [10717/B11] | 82.7% | 91.0%
COc1cc(O)ccc1C=C1C(=O)Nc2ccc(Br)c(C)c21 [10720/C03] | 0.9% | 50.3%
COc1ccc(C=C2C(=O)Nc3ccc(S(=O)(=O)Nc4ccc(C(F)(F)F)cc4)cc32)c(OC)c1 [10719/E04] | -7.4% | 3.1%
Cc1c(Br)ccc2c1C(=Cc1ccccc1)C(=O)N2 [10720/C06] | -9.7% | 36.7%
O=C1Nc2ccc(S(=O)(=O)Nc3ccc(C(F)(F)F)cc3)cc2C1=Cc1ccc(F)cc1Cl [10719/E09] | -33.1% | 36.1%
Cc1c(Br)ccc2c1C(=Cc1cccs1)C(=O)N2 [10717/C03] | 18.0% | 25.3%
O=C1Nc2ccc(CCCl)cc2C1=Cc1ccc(F)cc1C(F)(F)F [10719/G11] | -44.1% | 24.0%
Cc1c(Br)ccc2c1C(=Cc1ccc(F)cc1C(F)(F)F)C(=O)N2 [10719/C11] | -25.7% | -5.1%
COc1ccc(O)c(C=C2C(=O)Nc3ccc(Br)c(C)c32)c1 [10720/C10] | 2.0% | 62.6%
COc1cc(OC)c(C=C2C(=O)Nc3ccc(CCCl)cc32)c(OC)c1 [10719/G06] | -45.7% | -18.1%
COc1ccc(C=C2C(=O)Nc3ccc(S(=O)(=O)N4CCOCC4)cc32)c(OC)c1 [10719/F04] | -6.0% | 3.3%
O=C1Nc2ccc(S(=O)(=O)Nc3ccc(C(F)(F)F)cc3)cc2C1=Cc1ccc(O)cc1 [10719/E07] | -18.4% | 55.5%
COc1cc(O)ccc1C=C1C(=O)Nc2ccc(I)cc21 [10720/B03] | 32.3% | 53.3%
COc1cccc(O)c1C=C1C(=O)Nc2ccc(I)cc21 [10717/B10] | 16.1% | 56.1%
CN(C)c1ccc(C=C2C(=O)Nc3ccc(S(=O)(=O)N4CCOCC4)cc32)cc1 [10719/F08] | 90.9% | 75.7%
CNS(=O)(=O)c1ccc2c(c1)C(=Cc1c(OC)cc(OC)cc1OC)C(=O)N2 [10719/D06] | -12.2% | 11.2%
CCc1c(C)[nH]c(C=C2C(=O)Nc3ccc(S(=O)(=O)NC)cc32)c1C [10719/D05] | 18.5% | 71.8%
Cc1cc(O)cc(O)c1C=C1C(=O)Nc2ccc(Br)c(C)c21 [10720/C08] | -1.1% | 65.6%
CCOc1ccc(C=C2C(=O)Nc3ccc(S(=O)(=O)N4CCOCC4)cc32)cc1OC [10719/F02] | 14.8% | 28.1%
COc1cc(OC)c(C=C2C(=O)Nc3ccc(S(=O)(=O)Nc4ccc(C(F)(F)F)cc4)cc32)c(OC)c1 [10719/E06] | -42.0% | -4.5%

Compound | Biochem EGFR %Inhibition (EGFR) | Met Kinase % Inhibition (MET)
CSc1ccc(C=C2C(=O)Nc3ccc(Br)c(C)c32)s1 [10720/C07] | -25.4% | 26.7%
COc1ccc(C=C2C(=O)Nc3ccc(I)cc32)cc1OC [10720/B04] | 50.5% | 61.8%
CCOc1ccc(C=C2C(=O)Nc3ccc(S(=O)(=O)NC)cc32)cc1OC [10719/D02] | 9.8% | 27.5%
CNS(=O)(=O)c1ccc2c(c1)C(=Cc1ccc(N(C)C)cc1)C(=O)N2 [10719/D08] | -12.2% | 45.2%
COc1cc(OC)c(C=C2C(=O)Nc3ccc(S(=O)(=O)N4CCOCC4)cc32)c(OC)c1 [10719/F06] | -26.0% | -22.0%
CCc1c(C)[nH]c(C=C2C(=O)Nc3ccc(CCCl)cc32)c1C [10719/G05] | 4.0% | 15.9%
CCc1c(C)[nH]c(C=C2C(=O)Nc3ccc(S(=O)(=O)N4CCOCC4)cc32)c1C [10719/F05] | 35.0% | 63.1%
COc1ccc(O)c(C=C2C(=O)Nc3ccc(I)cc32)c1 [10720/B10] | 50.2% | 45.2%
CN(C)c1ccc(C=C2C(=O)Nc3ccc(S(=O)(=O)Nc4ccc(C(F)(F)F)cc4)cc32)cc1 [10719/E08] | 36.8% | 80.0%
COc1ccc(C=C2C(=O)Nc3c(Br)cc(Br)cc32)cc1OC [10720/A04] | -1.8% | 62.3%
CNS(=O)(=O)c1ccc2c(c1)C(=Cc1cccc([N+](=O)[O-])c1)C(=O)N2 [10719/D10] | -11.8% | 22.3%
O=C1Nc2c(Br)cc(Br)cc2C1=Cc1ccccc1O [10720/A05] | -4.4% | 43.4%
Cc1c(Br)ccc2c1C(=Cc1cccc([N+](=O)[O-])c1)C(=O)N2 [10719/C10] | 10.7% | 7.9%
O=C1Nc2ccc(S(=O)(=O)N3CCOCC3)cc2C1=Cc1ccc(F)cc1Cl [10719/F09] | -17.7% | 19.2%
CSc1ccc(C=C2C(=O)Nc3ccc(I)cc32)s1 [10720/B07] | 52.0% | 61.5%
Cc1cc(O)cc(O)c1C=C1C(=O)Nc2ccc(I)cc21 [10720/B08] | -12.6% | 27.7%
COc1ccc(C=C2C(=O)Nc3ccc(CCCl)cc32)c(OC)c1 [10719/G04] | -4.7% | -8.2%
O=C1Nc2c(Br)cc(Br)cc2C1=Cc1ncc[nH]1 [10720/A11] | -23.2% | 58.7%
Cc1c(Br)ccc2c1C(=Cc1ncc[nH]1)C(=O)N2 [10720/C11] | -21.9% | 30.0%
CCOc1ccc(C=C2C(=O)Nc3ccc(CCCl)cc32)cc1OC [10719/G02] | -12.2% | -2.4%
